Results reported in PubChem BioAssay (NCI).
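In this assay, cells in 96-well plates receive the compound at five concentrations for 48 hours. Endpoints are linearly interpolated between the surrounding concentrations. Definition used: TGI = concentration required for complete inhibition of growth.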

Tests used:
Test in all cases: NCI-60 cell line screen, 48 h
[1] = tested on: K-562 leukemia
[2] = tested on: HCT-116 colon
[3] = tested on: CCRF-CEM leukemia
[4] = tested on: SF-539 CNS
[5] = tested on: TK-10 renal
[6] = tested on: MCF7 breast
[7] = tested on: SN12C renal
[8] = tested on: U251 CNS
[9] = tested on: UO-31 renal
[10] = tested on: OVCAR-4 ovarian

SMILES | TGI [1] | TGI [2] | TGI [3] | TGI [4] | TGI [5] | TGI [6] | TGI [7] | TGI [8] | TGI [9] | TGI [10]
O=C(CN1CCCCC1)c1ccc2[nH]c(=O)oc2c1 | > 100 µM | > 100 µM | > 100 µM | > 100 µM | > 100 µM | > 100 µM | > 100 µM | > 100 µM |  | 
CCOC(=O)c1nc2ccccc2nc1Nc1cc(OC)c(OC)c(OC)c1 | > 100 µM | > 100 µM | > 100 µM | > 100 µM |  | > 100 µM | > 100 µM | > 100 µM | > 100 µM | > 100 µM
CCCSc1ccc2[nH]c(N3C(=O)/C(=C/c4ccc(O)c(OC)c4)N=C3c3ccccc3)cc2c1 | > 100 µM | > 100 µM | 93.8 µM | 49 µM |  | > 100 µM | 50.4 µM |  | > 100 µM | 
CC(C)C(Sc1nc(-c2ccccc2)c(-c2ccccc2)[nH]1)C(=O)N/N=C/c1ccc(Cl)cc1 (stereo unspecified) |  | 29.4 µM | 85.4 µM | 36.4 µM | > 100 µM |  | 36.3 µM | 39.5 µM | 47.8 µM | 98.4 µM
CC1=C[C@H](C[C@]2(C)c3c(c4c(C)cccc4oc3=O)O[C@@H]2C)OC1=O | > 100 µM | 30.3 µM | 74.7 µM | > 100 µM | > 100 µM | > 100 µM | > 100 µM | > 100 µM | > 100 µM | 
Cc1cc(C)c2c(-c3ccccc3)cc(=O)[nH]c2c1 | > 100 µM | > 100 µM | > 100 µM |  | > 100 µM | > 100 µM | > 100 µM | > 100 µM |  | > 100 µM
COC(=O)[C@H](Cc1ccccc1)NC(=O)N(CCN(CCC#N)C(=O)N[C@H](C(=O)OC)C(C)C)c1ccccc1 |  | > 100 µM | > 100 µM | > 100 µM | > 100 µM | > 100 µM | > 100 µM | > 100 µM | > 100 µM | > 100 µM
COC(=O)C1=C(C(=O)OC)C23CC4CCC2(C(=O)C1O3)C4(C)C (stereo unspecified) | > 100 µM | > 100 µM | 66.7 µM | > 100 µM | > 100 µM |  | > 100 µM | > 100 µM | > 100 µM | > 100 µM
CCN(CC)P(=O)(c1ccc2c(c1)OCCOCCOCCOCCO2)N(CC)CC | > 100 µM | > 100 µM | > 100 µM | > 100 µM | > 100 µM | > 100 µM | > 100 µM |  | > 100 µM | 
Cc1ccccc1NC(=O)C(=O)C(C1OC(=O)c2ccccc21)[N+](=O)[O-] (stereo unspecified) | > 100 µM | > 100 µM | > 100 µM | > 100 µM | > 100 µM |  | > 100 µM | > 100 µM | > 100 µM | > 100 µM
OC1C2CN3CCN(C2)CC1(c1ccccc1)C3 (stereo unspecified) | > 100 µM | > 100 µM |  | > 100 µM | > 100 µM | > 100 µM | > 100 µM | > 100 µM | > 100 µM | > 100 µM
COc1ccc(/C=C2\C(=O)N(C(=O)c3ccc(NC(C)=O)cc3)N=C2C)cc1OC | > 100 µM | > 100 µM | > 100 µM | > 100 µM | > 100 µM |  | > 100 µM |  | > 100 µM | > 100 µM
Cc1cccc(-c2cc(=O)c3cccnc3[nH]2)c1 | > 100 µM | > 100 µM | > 100 µM | > 100 µM |  | > 100 µM | > 100 µM | > 100 µM | > 100 µM | > 100 µM
O=c1[nH]c2c(C(F)(F)F)c(Cl)c(-c3ccccc3)nc2o1 | 84.3 µM | 38.4 µM | 34 µM |  | > 100 µM | > 100 µM | 32.4 µM | 85.6 µM | > 100 µM | 69.5 µM
CN(C)N1C(=C(C#N)C#N)C(c2ccccc2)CC1C#N (stereo unspecified) | > 100 µM | > 100 µM | > 100 µM | > 100 µM | > 100 µM | > 100 µM | > 100 µM | > 100 µM | > 100 µM | 
CCN1CC2=C(OC(N)=C(C#N)C2c2ccc(Cl)cc2)/C(=C/c2ccc(Cl)cc2)C1 (stereo unspecified) | > 100 µM | 54.9 µM | > 100 µM |  | > 100 µM | > 100 µM |  | 47.2 µM | > 100 µM | > 100 µM
O=[N+]([O-])C(/C(Cl)=C(/Cl)N1CCOCC1)=C1\Nc2ccccc2O1 | > 100 µM | > 100 µM | > 100 µM | > 100 µM |  | > 100 µM | > 100 µM | > 100 µM | > 100 µM | > 100 µM
COC(=O)C12CCCN1CCC2 | > 100 µM | > 100 µM | > 100 µM |  | > 100 µM | > 100 µM | > 100 µM | > 100 µM | > 100 µM | > 100 µM
CC(C)(C)c1ccc(O)c(C(O)c2ccccn2)c1 (stereo unspecified) | > 100 µM | > 100 µM | > 100 µM | > 100 µM | > 100 µM | > 100 µM | > 100 µM | > 100 µM | > 100 µM | 
CCOC(=O)c1ccc(-c2onc(C)c2Br)[nH]1 | > 100 µM | > 100 µM |  |  | > 100 µM | > 100 µM |  | > 100 µM | > 100 µM | > 100 µM
COC(=O)/C(=C(/C)c1ccco1)P(=O)(OC)OC |  | > 100 µM | > 100 µM | > 100 µM | > 100 µM | > 100 µM | > 100 µM | > 100 µM |  | > 100 µM
COc1cc(O)c2c(=O)c3cccc(C)c3[nH]c2c1 | > 10 µM | > 10 µM | > 10 µM | > 10 µM | > 10 µM | > 10 µM | > 10 µM | > 10 µM |  | > 10 µM
CCOC(=O)CCCN | > 100 µM | > 100 µM | > 100 µM |  | > 100 µM | > 100 µM | > 100 µM | > 100 µM | > 100 µM | > 100 µM
